Measurements: patent US20230264009A1, “DISINFECTING CAP KIT FOR LUER ACCESS DEVICES” (SterileCare Inc., priority 2022, published 2023)

Columns and labels:
[1] = system: E. coli SK2; test: Checkerboard titration, FICI; type: cell-based, Escherichia coli
Protocol: (§1) A fourth composition and solution included tetrasodium EDTA with ethanol or chlorhexidine HCl. This fourth composition and solution were created using checkerboard titration methods using micro broth dilution in 96-well microtiter plates. The concentrations of antimicrobials used were based on previously determined MIC values. Briefly, 200 µL of two-fold dilutions of tetrasodium EDTA and ethanol or chlorhexidine HCl were prepared in MH or MH II broth with standardized cell suspension. […] Microtiter plates were incubated at 37° C. for 24 h, and the results were analyzed. Each test was performed in duplicate and included a growth control without adding any antimicrobials.

[2] = system: Staphylococcus aureus ON89 biofilm; test: FBEC index, checkerboard dilution on biofilms; type: cell-based; conditions: S. aureus ON89 biofilm
Protocol: (§3) In step (4), microtiter plates are incubated at 37° C. for 24 h. then (6), after incubation, the bacterial and fungal cells were dislodged from the pegs into the recovery medium described above.
(§4) Three 10-µL aliquots, for a total of 30 µL from each well of recovery medium, were spotted on MH agar plates and incubated for 24 h at 37° C. […] The FBEC determination is a modification of the FICI.

[3] = system: Staphylococcus epidermidis SK9 biofilm; test: FBEC index, checkerboard dilution on biofilms; type: cell-based; conditions: S. epidermidis SK9 biofilm
Protocol: as §3, §4

[4] = system: E. coli SK2; test: MIC, micro broth dilution; type: cell-based, Escherichia coli; conditions: alone, 24 h
Protocol: (§2) An assay was made using a minimum inhibitory concentration (MIC) and minimum bactericidal concentration (MBC) and minimum fungicidal concentration (MFC) determination. The MIC was determined by the micro broth dilution method in 96-well plates. Serial two-fold dilutions of tetrasodium EDTA (from 2% to 0.015%), ethanol (from 50% to 0.1%) and chlorhexidine HCl (from 100 µg/mL to 0.025 µg/mL) were prepared in MH broth with a final volume of 90 µL per well. A 10 µL containing 1 × 10^5 bacterial cells or 2 × 10^3 fungal cells were added to each well. The inoculated plates were covered with a lid, sealed with Parafilm, and incubated for 24 h at 37° C. with slight rocking on a tilting platform shaker. After incubation, the optical density at 600 nm (OD 600 ) of the cultures in each well was measured using an xMark™ Microplate Absorbance Spectrophotometer (Bio-Rad). […] MBCs and MFCs were determined by transferring 100 µL from each well with no apparent growth onto appropriate agar plates, followed by incubation for 24 h at 37° C.

[5] = system: S. epidermidis SK9; test: MBC/MFC determination; type: cell-based, Staphylococcus epidermidis; conditions: alone
Protocol: as §2

[6] = system: Proteus mirabilis ON153 biofilm; test: FBEC index, checkerboard dilution on biofilms; type: cell-based; conditions: P. mirabilis ON153 biofilm
Protocol: as §3, §4

[7] = system: Stenotrophomonas maltophilia ON17; test: Checkerboard titration, FMCI; type: cell-based; conditions: S. maltophilia ON17
Protocol: as §2, §1

[8] = system: Proteus mirabilis ON153; test: Checkerboard titration, FMCI; type: cell-based; conditions: P. mirabilis ON153
Protocol: as §2, §1

[9] = system: Candida albicans SK4b; test: Checkerboard titration, FMCI; type: cell-based; conditions: C. albicans SK4b
Protocol: as §2, §1

[10] = system: Staphylococcus epidermidis ON170; test: Checkerboard titration, FMCI; type: cell-based; conditions: S. epidermidis ON170
Protocol: as §2, §1

[11] = system: Serratia marcescens SK2; test: Checkerboard titration, FMCI; type: cell-based; conditions: S. marcescens SK2
Protocol: as §2, §1

[12] = system: Escherichia coli ON29; test: Checkerboard titration, FMCI; type: cell-based; conditions: E. coli ON29
Protocol: as §2, §1

[13] = system: Staphylococcus aureus ON89; test: Checkerboard titration, FMCI; type: cell-based; conditions: S. aureus ON89
Protocol: as §2, §1

[14] = system: Pseudomonas aeruginosa SK1; test: Checkerboard titration, FMCI; type: cell-based; conditions: P. aeruginosa SK1
Protocol: as §2, §1

[15] = system: C. albicans ON47 biofilm; test: MBEC Assay, 48-h biofilm, 24 h exposure; type: cell-based, Candida albicans
Protocol: A biofilm cultivation cell composition was provided. This fifth composition was created using an MBEC Assay® biofilm inoculator, consisting of a polystyrene lid with 96 downward-protruding pegs and a corresponding base used to grow biofilms. A standardized inoculum was diluted in an appropriate biofilm growth medium to achieve a viable cell count of 1.5 × 10^6 CFU/mL of bacterial cells or […] CFU/mL of fungal cells. Then, 150 µL of this inoculum was transferred into each appropriate well, and the peg lids were inserted into the microtiter plates. The plates were sealed with Parafilm and were incubated at optimum temperature for 48 h with slight rocking for bacteria and shaking at 200 rpm for fungal strains. After incubation, the peg lid was removed from the base and rinsed twice with sterile phosphate-buffered saline (PBS) for 2 min to remove loosely attached non-sessile cells. Before the antimicrobial challenge, the pegs in column 1 (n = 8) were considered the biofilm growth control; these pegs were removed from the lids, placed into 200 µL of recovery medium, and analyzed for starting biofilm cell numbers as described below. […] MBEC values were determined as the minimum concentration of antimicrobials that yielded a viable cell count at or lower than the 125 CFU/mL detection limit.

[16] = system: MRSA ON184 biofilm; test: FBEC index, checkerboard dilution on biofilms; type: cell-based, Staphylococcus aureus
Protocol: as §3, §4

[17] = system: S. epidermidis SK9; test: MIC, micro broth dilution; type: cell-based, Staphylococcus epidermidis; conditions: alone, 24 h
Protocol: as §2

[18] = system: C. albicans ON47; test: MBC/MFC determination; type: cell-based, Candida albicans; conditions: alone
Protocol: as §2

[19] = tetrasodium EDTA + chlorhexidine HCl

In the case of `O=C([O-])CN(CCN(CC(=O)[O-])CC(=O)[O-])CC(=O)[O-].[Na+].[Na+].[Na+].[Na+]` [EDTA, tetrasodium EDTA], the “Concentration in combination giving FICI” value [1, 19] is reported as 0.008 % w/v, the “Concentration in combination giving FICI” value ([1]; tetrasodium EDTA + ethanol) is reported as 0.015 % w/v and the “FBEC (concentration in combination)” value [2, 19] is reported as 0.125 % w/v. For the same compound, the “FBEC (concentration in combination)” value ([2]; tetrasodium EDTA + ethanol) was 0.063 % w/v, the “FBEC (concentration in combination)” value [3, 19] was 0.125 % w/v and the “FBEC (concentration in combination)” value ([3]; tetrasodium EDTA + ethanol) was 0.031 % w/v. The MIC [4] was 0.5 % w/v, the MBC/MFC [5] was 0.5 % w/v and the “FBEC (concentration in combination)” value [6, 19] was 0.125 % w/v. The “FBEC (concentration in combination)” value ([6]; tetrasodium EDTA + ethanol) was 0.125 % w/v, the “Concentration in combination giving FMCI” value [7, 19] was 0.031 % w/v and the “Concentration in combination giving FMCI” value ([7]; tetrasodium EDTA + ethanol) was 0.125 % w/v. The “Concentration in combination giving FMCI” value [8, 19] was 0.125 % w/v, the “Concentration in combination giving FMCI” value ([8]; tetrasodium EDTA + ethanol) was 0.063 % w/v and the “Concentration in combination giving FMCI” value [9, 19] was 0.125 % w/v. For the same compound, the “Concentration in combination giving FMCI” value ([9]; tetrasodium EDTA + ethanol) was 0.25 % w/v, the “Concentration in combination giving FMCI” value [10, 19] was 0.25 % w/v and the “Concentration in combination giving FMCI” value ([10]; tetrasodium EDTA + ethanol) was 0.031 % w/v. The “Concentration in combination giving FMCI” value [11, 19] was 0.125 % w/v, the “Concentration in combination giving FMCI” value ([11]; tetrasodium EDTA + ethanol) was 0.25 % w/v and the “Concentration in combination giving FMCI” value [12, 19] was 0.008 % w/v. The “Concentration in combination giving FMCI” value ([12]; tetrasodium EDTA + ethanol) was 0.25 % w/v, the “Concentration in combination giving FMCI” value [13, 19] was 0.008 % w/v and the “Concentration in combination giving FMCI” value ([13]; tetrasodium EDTA + ethanol) was 0.25 % w/v. For the same compound, the “Concentration in combination giving FMCI” value [14, 19] was 0.031 % w/v, the “Concentration in combination giving FMCI” value ([14]; tetrasodium EDTA + ethanol) was 0.031 % w/v and the MBEC [15] was 1 % w/v. For the same compound, the “FBEC (concentration in combination)” value [16, 19] was 0.031 % w/v, the “FBEC (concentration in combination)” value ([16]; tetrasodium EDTA + ethanol) was 0.063 % w/v and the MIC [17] was 0.063 % w/v. For the same compound, the MBC/MFC [18] was 1 % w/v.
